US20220218701A1, “COMPOSITIONS AND METHODS COMPRISING ENDOTHELIN A RECEPTOR ANTAGONISTS AND ANDROGEN THERAPIES” (priority 2019, published 2022)
Entries after “also recorded” stand apart in the source; their conditions may differ.

Columns and labels:
[1] = system: ARCaPM prostate cancer cell line; test: ARCaPM prostate cancer bone metastasis model, intracardiac inoculation, castration or sham surgery; type: in vivo, athymic nude mice
Experimental: Forty-eight male athymic nude mice either underwent castration or sham surgery at four weeks of age. At 5 weeks of age, mice were inoculated with ARCaPM prostate cancer cell line into the left cardiac ventricle. […] Two days later, mice began zibotentan 25 mg/kg/day or vehicle control by gavage.
Forty-eight HSD athymic nude male mice were obtained from Harlan Sprague Dawley (Envigo, Indianapolis, Ind.) after undergoing castration or sham surgery. At five weeks of age, mice were anesthetized using isoflurane vaporizer anesthesia. ARCaPM prostate cancer cells were washed, resuspended in PBS, and inoculated into the left cardiac ventricle at a volume of 100 μl containing 1×10^5 cells, as previously described. Starting at seven days post-inoculation, mice were weighed every 2-3 days.
Zibotentan is an ETAR-specific antagonist and was obtained from AstraZeneca (Cambridge, England). Zibotentan was dissolved in 1% polysorbate 80 at a concentration of 5 mg/ml. Mice in the treatment group received zibotentan 25 mg/kg/day. Mice in the vehicle control group received an equivalent volume of 1% polysorbate 80 via gavage. Gavage treatments were started two days after the intracardiac inoculations (5 weeks+2 days of age) seven days/week. The dosing scheduled was changed to five days/week at 59 days post-inoculation.
Mice were anesthetized using an isoflurane vaporizer anesthetic unit and underwent radiographic imaging using a Faxitron UltraFocus 60 Digital Radiographic Unit (Faxitron, Tucson, Ariz.) every 2-4 weeks with attention paid to the appearance of sclerotic or lytic skeletal lesions.
Following euthanasia, mouse femora, tibiae, humeri, spines and other bones were harvested and fixed in 10% buffered formalin for 48 hours and decalcified in Immunocal (Decal Chemical Corp, Suffern, N.Y.) for an additional 48 hours. Bones were rinsed, processed and paraffin embedded. Blocks were cut into 5 μm sections, mounted onto charged glass slides, and air-dried overnight.
Static histomorphometric analysis was performed on embedded samples stained with hematoxylin, eosin, and orange G, a bone matrix stain. Images of the samples were taken at 4× with Nikon Eclipse 90i upright microscope and Nikon HD Cooled Color Digital Camera DXM1200C paired with Nikon ACT-1C software. Each sample produced 10 to 30 tiled scans of the whole specimen and were stitched using Adobe Photoshop CC. Tumor area was traced and measured on Adobe Photoshop CC with Cintiq 22HD touch (Wacom) tablet PC and stylus. Then, measured tumor area was divided by each subject's age in days for further statistical analysis.
Forty-eight male athymic nude mice underwent castration (24 mice) or sham surgery (24 mice) at three weeks of age. At five weeks of age, ARCaPM prostate cancer cells (1×10^5 cells in 100 μl) were inoculated into the left cardiac ventricle. […] Two days later, zibotentan 25 mg/kg/day or vehicle control treatments by gavage were started. This strategy produced four experimental groups: vehicle+sham (Veh+Sham), vehicle+castrate (Veh+Castr), zibotentan+sham (Zibo+Sham), and zibotentan+castrate (Zibo+Castr) (FIG. 2).

ET-1 = test: Serum ET-1 ELISA at euthanasia in the ARCaPM model; type: in vivo, mice
Experimental: Sera were collected at euthanasia and frozen. Thawed sera were analyzed for ET-1 concentration using ELISA in the four experimental groups and further subdivided into the presence or absence of prostate cancer lesions. Data was analyzed using two-way ANOVA. Treatment with zibotentan was a significant source of statistical variation. Blood was collected at euthanasia. Sera was collected using serum-separator centrifuge tubes (BD Microtainer®, SST, Becton Dickinson, Franklin Lakes, N.J.), and frozen at −80° C. for later analyses. ET-1 concentration was measured in thawed sera using an ET-1 colorimetric ELISA kit (R&D Systems, Minneapolis, Minn.) and a BioTek Synergy HTX plate reader (Winooski, Vt.).

[2] = target: T1, endothelin B receptor (ETBR) (Homo sapiens, UniProt P24530); details: cited from earlier work
T1 sequence (P24530 27-442): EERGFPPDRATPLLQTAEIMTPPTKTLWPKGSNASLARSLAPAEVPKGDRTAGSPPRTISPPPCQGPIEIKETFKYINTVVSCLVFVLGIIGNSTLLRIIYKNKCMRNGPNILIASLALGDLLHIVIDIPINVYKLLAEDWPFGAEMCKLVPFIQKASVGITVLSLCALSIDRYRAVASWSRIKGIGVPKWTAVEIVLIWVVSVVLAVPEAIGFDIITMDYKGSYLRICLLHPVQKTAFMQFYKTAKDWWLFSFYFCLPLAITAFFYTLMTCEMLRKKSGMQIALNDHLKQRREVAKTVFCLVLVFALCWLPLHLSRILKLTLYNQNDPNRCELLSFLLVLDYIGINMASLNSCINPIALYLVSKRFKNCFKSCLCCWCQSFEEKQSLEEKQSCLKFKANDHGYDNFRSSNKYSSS

metastatic CRPC = details: phase 2, 312 men with metastatic CRPC; increased from 17.3; cited from earlier work
[3] = system: non-metastatic prostate cancer; details: phase 3, monotherapy, non-metastatic disease; stopped early; cited from earlier work
[4] = as reported by the applicant's group; cited from earlier work
[5] = Zibo + Castr group, zibotentan 25 mg/kg/day gavage
[6] = Zibo + Sham group, zibotentan 25 mg/kg/day gavage
[7] = Zibo+Sham vs Veh+Sham and Veh+Castr groups
[8] = effect of castration in zibotentan treated groups, Zibo+Castr vs. Zibo+Sham

Compound: COc1nc(C)cnc1NS(=O)(=O)c1cccnc1-c1ccc(-c2nnco2)cc1 [zibotentan]
- number of skeletal lesions, Left leg Prox tibia [1, 5]: 1
- number of soft tissue lesions, TOTAL [1, 5]: 0
- number of skeletal lesions, Left leg Dist femur [1, 6]: 1
- number of skeletal lesions, Left leg Prox tibia [1, 6]: 1
- number of skeletal lesions, Maxilla [1, 6]: 2
- number of skeletal lesions, Rib [1, 6]: 1
- number of skeletal lesions, Right arm Prox humerus [1, 6]: 1
- number of skeletal lesions, Right arm Prox radius [1, 6]: 1
- number of skeletal lesions, TOTAL [1, 6]: 8
- number of skeletal lesions, Thoracic spine T10 [1, 6]: 1
- number of soft tissue lesions, Adrenal Right [1, 6]: 1
- number of soft tissue lesions, Eye Left [1, 6]: 1
- number of soft tissue lesions, TOTAL [1, 6]: 2
- time to bone-specific tumor events ([1]; Zibo+Castr compared to Zibo+Sham group, p=0.0250): longer
- detectable tumor at the completion of the experiment ([1]; Zibo+Castr group, day 152): No mouse
- survival ([1]; Zibo+Castr vs Veh+Sham groups): no survival difference
- time to a tumor event (tumor-free status) ([1]; Zibo+Castr vs Zibo+Sham group, p=0.0149): significantly longer time to a tumor event
- radiographically apparent lesions at the end of the experiment ([1]; Zibo+Castr, 152 days): lack of radiographically apparent lesions
- survival (Kaplan-Meier) ([1]; Zibo+Sham group, p=0.0045): significantly shorter survival
- skeletal lesion area (histomorphometry) [1, 7]: No significant differences
- tumor area adjusted to the day post-inoculation of euthanasia [1, 7]: differences among the groups were not detected
- survival ([1]; absence of androgen, Zibo+Castr vs. Veh+Castr, p=0.0050): improved survival
- number of skeletal lesions [1, 8]: reduced the number of skeletal lesions
- survival [1, 8]: increased survival
- survival ([1]; sham-operated mice, Zibo+Sham vs. Veh+Sham, p=0.0171): decrease survival
- serum ET-1 concentration (ET-1; zibotentan-treated tumor-bearing mice vs tumor-free): trend for higher serum ET-1
- serum ET-1 concentration (ET-1; zibotentan-treated vs vehicle control mice, sera at euthanasia): significant increase; also recorded: higher
- affinity for the endothelin B receptor (ETBR) [2]: no affinity
- overall survival (metastatic CRPC): 24.5 months
- overall survival (primary outcome) [3]: lack of effect
- side effect underlying gastrointestinal effects [4]: immune-related damage of nasal olfactory epithelium leading to aerophagia and intestinal distention
